Data taken from PMC10827914 (Cellular and Molecular Life Sciences: CMLS, 2024).

Key:
HUVEC = assay: Cytotoxicity assay on adherent and non-adherent HUVEC; type: cell-based, human; details: adherent and non-adherent cells, concentrations lower than 100 pg/ml, 24 h, MTT
Description: The supernatant was removed using a Pasteur pipet connected to a vacuum pump, and 200 µL of dimethyl sulfoxide was then added to each well to dissolve the formazan crystals. The absorbance at 570 nm was then read using a microtiter plate reader.
The cytotoxicity assay with cell in suspension was carried out following the same protocol except that the overnight incubation of the microtiter plate after cell plating was omitted.

CD13 expressed in HUVEC = assay: Inhibition of cell-associated CD13 enzymatic activity, HUVEC; type: cell-based, human; details: 3 × 10^5 cells/well, L-alanine p-nitroanilide, 30 min, 37 °C, absorbance 405 nm
Description: Fig. 5 Quantification of CD13 expressed by HL-60 and HUVEC by western blotting and FACS analyses, and determination of their enzymatic activity. A Western blotting (WB) analysis of CD13 expression in HL-60 cells and HUVEC. For both cell lines, 2 µg of cell lysates were loaded in each well (n = 4–5 replicates, as indicated). After blotting, the membrane was cut and analyzed for CD13 and actin expression as described in Material and methods. The results of one representative experiment, out of three independent experiments performed, are shown (bars, ratio of CD13/actin band intensity, mean ± SEM). Recombinant human CD13 (rCD13) (20 ng) was loaded as positive control. MW, molecular weight markers. B FACS analysis of CD13 expression in HUVEC and HL-60 cells. The cells were incubated with mAb WM15 (10 μg/mL) and stained with a FITC-labeled goat anti-mouse IgG (H + L) secondary antibody. Data were expressed as fluorescence intensity and normalized to the number of cells. The cumulative results of three independent experiments are shown (each performed in duplicate; mean ± SEM). C Enzyme activity assay of CD13 expressed in HUVEC and HL-60 cells. […] Absorbance at 405 nm was measured using a plate reader. The enzyme units in each sample were calculated using rCD13 as a standard and were normalized to the number of cells. […] The absorbance was measured at 405 nm using a plate reader. […]

[1] = tested on: soluble CD13 from human serum (sCD13); assay: Competitive ELISA of sCD13 binding to mAb WM15; details: plates coated with mAb WM15 5 μg/mL, human serum diluted 1:2, 2 h, room temperature
Description: Fig. 4 The active site of membrane CD13 expressed by HUVEC, but not that of soluble CD13 or membrane CD13 expressed by HL60 cells, is accessible to G4-TNF. A Competitive effects of G4 and G4-TNF on the binding of mAb WM15 (anti-CD13) to sCD13 or rCD13 showing the lack of binding of G4-TNF to natural and recombinant soluble CD13 (sCD13 and rCD13). G4, scrambled G4 (GCRSNCYRVG), and TNF were used as positive (G4) and negative (scrambled G4, TNF) controls. The sCD13 competition assay was performed as follows: microplates were coated with mAb WM15 (5 μg/mL) in DPBS and incubated overnight at 4 °C. […] The mixtures were incubated for 2 h at room temperature and washed with DPBS. To detect bound sCD13, we added an anti-CD13 rabbit polyclonal antibody (1:1000, 1 h at room temperature), washed with DPBS, and added peroxidase-labeled goat anti-rabbit secondary antibody (1:2000, 1 h). Bound peroxidase was detected using o-phenylendiamine chromogenic substrate. The absorbance of o-phenylenediamine was measured at 490 nm using an ELISA plate reader (Bio-Rad). Cumulative results of two independent experiments, each performed in duplicate, are shown (mean ± SEM). The rCD13 competition assay was performed as described in Supplementary Fig. S2 (one experiment in duplicate, mean ± SEM). […]

VGCARRYCS-TNF [G4-TNF, recombinant murine TNF fused to the C-terminus of G4]
Cytotoxic effects on HUVEC (in words) (HUVEC): No or minimal cytotoxic effects | Inhibition of CD13 enzymatic activity associated with HUVEC (in words) (CD13 expressed in HUVEC): did not inhibit | Competition of sCD13 binding to mAb WM15 (in words) [1]: no competition was observed
